This passage reports K inact and Ki results from ChEMBL document CHEMBL1128780, “Inactivation of carboxypeptidase a by 2-benzyl-3,4-epithiobutanoic acid” (Bioorg Med Chem Lett, 1995).

pKi: −log10 of the molar value.

The pKi is −log10 of the Ki, conventionally taken in molar units.

A short description of test [1]: (§1) Inhibitory activity against Carboxypeptidase A (CPA).
Test [2] is described as follows: as §1. This is another data set of the same source.

In test [1], `O=C(O)[C@H](Cc1ccccc1)[C@H]1CO1` (single isomer, unassigned) displayed a K inact of 1.59 min⁻¹. The same molecule gave a pKi in test [2] of 4.07.
In test [1], `O=C(O)[C@@H](Cc1ccccc1)[C@H]1CO1` registered a K inact of 1.11 min⁻¹. Besides, the negative-log Ki (pKi) in test [2] was 3.81.
Taken in the same sequence, the figures for `O=C(O)[C@H](Cc1ccccc1)[C@H]1CS1` were 1.31 min⁻¹ and 4.03.
